According to patent US20180251425A1, “2,3,5 TRISUBSTITUTED PYRROLE DERIVATIVES AS TOPOISOMERASE INHIBITORS AND THERAPEUTIC USES THEREOF” (UNIVERSITY OF MYSORE, priority 2015, published 2018):

Tests used:
[1] = biological target: T1, recombinant human DNA topoisomerase IIα (Homo sapiens, UniProt P11388); experiment: Topoisomerase IIα DNA relaxation assay; assay type: biochemical; settings: 0, 10, 25, 50 and 100 μM, supercoiled pBS-SK+ plasmid, 37° C. 30 min, dose dependent
T1 construct: purchased TopoGEN; Inc
T1 sequence (P11388 whole entry): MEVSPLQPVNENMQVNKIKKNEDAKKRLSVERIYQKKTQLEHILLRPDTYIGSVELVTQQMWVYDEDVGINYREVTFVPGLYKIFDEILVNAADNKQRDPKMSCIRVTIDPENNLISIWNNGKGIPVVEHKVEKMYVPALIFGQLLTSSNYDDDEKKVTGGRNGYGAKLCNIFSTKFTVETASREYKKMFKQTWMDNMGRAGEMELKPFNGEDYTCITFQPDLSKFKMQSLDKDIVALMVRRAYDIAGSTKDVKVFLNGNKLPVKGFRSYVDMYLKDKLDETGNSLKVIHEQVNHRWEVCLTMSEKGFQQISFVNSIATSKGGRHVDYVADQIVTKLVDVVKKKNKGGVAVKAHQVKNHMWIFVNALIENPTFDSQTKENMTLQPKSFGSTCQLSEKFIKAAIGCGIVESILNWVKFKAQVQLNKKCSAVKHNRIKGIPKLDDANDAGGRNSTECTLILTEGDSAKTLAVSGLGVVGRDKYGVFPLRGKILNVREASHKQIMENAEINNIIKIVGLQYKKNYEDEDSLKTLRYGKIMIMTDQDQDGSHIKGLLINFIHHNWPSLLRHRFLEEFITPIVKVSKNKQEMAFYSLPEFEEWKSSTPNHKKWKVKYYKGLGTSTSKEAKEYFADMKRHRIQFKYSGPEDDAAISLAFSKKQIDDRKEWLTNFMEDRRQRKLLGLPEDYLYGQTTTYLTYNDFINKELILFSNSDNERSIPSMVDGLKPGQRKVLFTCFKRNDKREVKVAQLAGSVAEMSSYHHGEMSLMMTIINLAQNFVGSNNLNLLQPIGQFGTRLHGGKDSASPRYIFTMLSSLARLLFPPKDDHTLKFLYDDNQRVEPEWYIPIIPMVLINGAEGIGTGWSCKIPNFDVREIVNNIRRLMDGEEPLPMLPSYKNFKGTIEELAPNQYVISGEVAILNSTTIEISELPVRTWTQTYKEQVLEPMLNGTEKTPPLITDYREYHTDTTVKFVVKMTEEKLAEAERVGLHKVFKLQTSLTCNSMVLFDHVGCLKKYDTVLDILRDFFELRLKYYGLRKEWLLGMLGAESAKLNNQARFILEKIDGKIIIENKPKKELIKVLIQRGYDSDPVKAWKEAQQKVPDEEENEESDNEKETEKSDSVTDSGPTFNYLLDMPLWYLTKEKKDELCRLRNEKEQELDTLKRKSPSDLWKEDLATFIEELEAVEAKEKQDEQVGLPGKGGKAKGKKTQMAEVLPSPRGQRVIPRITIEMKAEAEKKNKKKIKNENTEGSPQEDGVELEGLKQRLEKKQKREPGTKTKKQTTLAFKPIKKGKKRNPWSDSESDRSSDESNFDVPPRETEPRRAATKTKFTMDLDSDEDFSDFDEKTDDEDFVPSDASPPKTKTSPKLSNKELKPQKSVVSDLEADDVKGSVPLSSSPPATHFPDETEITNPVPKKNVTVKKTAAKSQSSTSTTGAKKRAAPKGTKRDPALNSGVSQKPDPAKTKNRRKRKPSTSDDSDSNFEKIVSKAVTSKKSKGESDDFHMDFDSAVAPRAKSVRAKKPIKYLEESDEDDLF
Description: The topoisomerase IIα assay was performed, in a reaction mixture containing supercoiled plasmid DNA (pBS-SK+) was isolated using Gen Elute plasmid miniprep kit (Sigma Aldrich), according to manual instructions. ˜200 ng plasmid and two units of recombinant human DNA topoisomerase IIα (TopoGEN. Inc) along with the different concentrations of ASR6 (0, 10, 25, 50 and 100 μM) was added at RT for 5 min; equal amount of DMSO was used as vehicle control. Reaction was carried out at 37° C. for 30 min in a relaxation buffer 1× topo II buffer (50 mM Tris-HCl (pH 8.0), 10 mM NaCl, 10 mM MgCl2, 5 mM ATP, 0.5 mM dithiothreitol and 30 μg BSA/ml) and reactions were terminated by adding 5× stop buffer containing 5% sarkosyl, 0.0025% bromophenol blue, 25% glycerol. The DNA samples were electrophoresed on 1% agarose gel at 45 volts for 4 h with 0.5×TBE (Tris-borate-EDTA). The gels were stained for 30 min in milli Q water containing ethidium bromide (0.5 mg/ml) followed by distaining for 30 min in milli Q water and images were taken. […] VP16 (Topo II inhibitor) were used as positive control (FIG. 6).

K562 = experiment: Cytotoxicity (MTT / trypan blue) in K562 cells; assay type: cell-based; settings: Homo sapiens, read-out: Cytotoxicity IC 50 in μM (Cell lines) K562
Description: (§1) Human cancer cell lines, K562, MCF7, HeLa and HEK 293T were purchased from National Centre for Cell Science, Pune, India. Cells were grown in RPMI 1640/MEM/DMEM supplemented with 10% heat-inactivated fetal bovine serum (FBS), 100 U/mL of Penicillin, and 100 μg of streptomycin/mL and incubated at 37° C. in a humidified atmosphere containing 5% CO2.
(§2) The human T cell leukemia cell line Molt4, Human acute lymphoblastic leukemia (ALL) cell line Nalm6, Human acute myelocytic leukemia (AML) cell line Reh, chronic myelogenous leukemia (CML) cell line K562, Human breast adenocarcinoma cell lines like MCF7 and human kidney cell line HEK 293T (Human embryonic kidney cell line) were selected for the purpose of preliminary anticancer screening of newly synthesized compounds (ASR1 to ASR15). To check the cytotoxicity, trypan blue dye exclusion assays, MTT assay were employed as described earlier Further, Cell cycle analysis, Mitochondrial membrane potential, Annexin-V FITC staining assay were also performed in order to understand the mode of cell death after treatment with ASR6. Further, ASR6 was also tested for its ability to inhibit topoisomerase I and II activity in vitro.
(§3) Cytotoxic effect of the newly synthesized compounds against leukemic cells was assessed using 3-(4, 5-dimethyl-2-yl02, 5-diphenyl tetrazolium bromide (MTT) assay. After exposure of compound at different concentration (0.01, 0.1, 0.5, 1, 10, 50 and 100 μM) cells were harvested and transferred into 96 well plate, MTT (5 mg/ml) was added and incubate at 37° C. for 4 h and formazan crystals were dissolved by adding solubilizing agent (10% SDS and 50% dimethyl formamide) for 1 h, finally plate was read at 570 nm (Bio-Rad, USA). Results were represented as inhibition of percentage of cell proliferation in bar diagram (n=3) (FIGS. 1 A, C, E and G).
(§4) To determine the growth inhibitory activity of the drug, 0.5×10^5 cell/ml were plated in 24 well (Biofil, USA.) in 1 ml of complete medium and treated with various concentration of the compound to test, cells were stained with 0.4% trypan blue and counted on a hemocytometer after treatment with compounds at 48 and 72 h time point. Results were represented as number of viable cells/ml in bar diagram (FIGS. 1 B, D, F, and H) (n=3).

MCF7 = experiment: Cytotoxicity in MCF7 cells; assay type: cell-based; settings: Homo sapiens, read-out: Cytotoxicity IC 50 in μM (Cell lines) MCF7
Description: as §1, §2, §3, §4

[2] = biological target: T2, recombinant human DNA topoisomerase I (Homo sapiens, UniProt P11387); experiment: Topoisomerase I DNA relaxation assay; assay type: biochemical; settings: 0, 10, 25, 50 and 100 μM, supercoiled pBS-SK+ plasmid, 37° C. 30 min
T2 construct: purchased TopoGEN; Inc
T2 sequence (P11387 1-765): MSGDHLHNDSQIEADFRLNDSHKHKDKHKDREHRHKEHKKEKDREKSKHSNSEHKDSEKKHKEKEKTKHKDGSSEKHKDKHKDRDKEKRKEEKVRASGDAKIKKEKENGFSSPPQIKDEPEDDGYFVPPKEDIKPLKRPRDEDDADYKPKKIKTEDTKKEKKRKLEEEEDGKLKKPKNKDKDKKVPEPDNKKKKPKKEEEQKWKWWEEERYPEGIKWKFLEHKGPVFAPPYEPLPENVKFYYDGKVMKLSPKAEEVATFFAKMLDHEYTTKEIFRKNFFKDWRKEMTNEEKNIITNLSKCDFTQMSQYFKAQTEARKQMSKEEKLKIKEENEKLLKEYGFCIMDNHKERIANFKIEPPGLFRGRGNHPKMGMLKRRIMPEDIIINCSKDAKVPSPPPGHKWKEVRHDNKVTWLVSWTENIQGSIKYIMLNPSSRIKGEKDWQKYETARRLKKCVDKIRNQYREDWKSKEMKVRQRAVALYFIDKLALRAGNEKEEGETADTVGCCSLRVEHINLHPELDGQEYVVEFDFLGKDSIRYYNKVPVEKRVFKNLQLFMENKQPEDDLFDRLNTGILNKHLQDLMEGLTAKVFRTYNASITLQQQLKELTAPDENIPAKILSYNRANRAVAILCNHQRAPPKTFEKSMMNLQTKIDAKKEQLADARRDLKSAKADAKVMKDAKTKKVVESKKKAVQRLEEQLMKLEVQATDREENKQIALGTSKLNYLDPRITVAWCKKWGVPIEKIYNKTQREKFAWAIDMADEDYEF
Description: In order to determine the ability of ASR6 of topoisomerase I activity assay was performed, in a reaction mixture containing supercoiled plasmid DNA (pBS-SK+) was isolated using Gen Elute plasmid miniprep kit (Sigma Aldrich), according to manual instructions. ˜200 ng plasmid and two units of recombinant human DNA topoisomerase I (TopoGEN. Inc) along with the different concentrations of ASR6 (0, 10, 25, 50 and 100 μM) was added at RT for 5 min; equal amount of DMSO was used as vehicle control. Reaction was carried out at 37° C. for 30 min in a relaxation buffer 1× topoI buffer (50 mM Tris-HCl (pH 8.0), 10 mM NaCl, 10 mM MgCl2, 5 mM ATP, 0.5 mM dithiothreitol and 30 μg BSA/ml) and reactions were terminated by adding 5× stop buffer containing 5% sarkosyl, 0.0025% bromophenol blue, 25% glycerol. The DNA samples were electrophoresed on 1% agarose gel at 45 volts for 4 h with 0.5×TBE (Tris-borate-EDTA). The gels were stained for 30 min in milli Q water containing ethidium bromide (0.5 mg/ml) followed by distaining for 30 min in milli Q water and images were taken (FIG. 5). […] Topotecan (Topo I inhibitor) was used as positive control for topoisomerase I.

## CCOC(=O)c1[nH]c(-c2ccc(Cl)cc2)cc1-c1cccnc1 [ASR6, Ethyl 5-(4-chlorophenyl)-3-(pyridin-3-yl)-1H-pyrrole-2-carboxylate]
[1]
  Inhibition of topoisomerase IIα activity (DNA relaxation): can inhibit topoisomerase Ha enzymatic activity
K562
  IC50: 0.512 µM
MCF7
  IC50: 0.884 µM
[2]
  Inhibition of topoisomerase I activity (DNA relaxation): does not inhibit topoisomerase I activity
